Holding throughout (assay type): functional, cell-based
In assay [1] the test system is MCF7. Kind of assay: Dose at which compound exhibits cytotoxicity in the MCF-7 cell line. To be noted: Homo sapiens.
Assay [2] deals with A121. Nature of the assay: Dose at which compound exhibits cytotoxicity in the A121 ovarian carcinoma cell line. To be noted: Homo sapiens.
The subject of assay [3] is A121. Kind of assay: Cytotoxic effect (tumor cell growth inhibition) on the human cell line A121 ovarian carcinoma at the dose of […].
Assay [4] deals with A121. Kind of assay: Cytotoxic effect (tumor cell growth inhibition) on the human cell line A121 ovarian carcinoma at the dose of […].
In assay [5] the test system is MCF7. Nature of the assay: Cytotoxic effect (tumor cell growth inhibition) on the human cell line MCF-7 breast carcinoma at a dose of […].

For the substance cis-[PtCl2(Hmtpo-N3)2].2H2O, the values for the ID50 in the assay on MCF7 [1] and in the assay on A121 [2] were 33.4 µM and 14.3 µM, respectively. The Cytotoxic effect in the assay on A121 [3] was determined as 84%; in the assay on A121 [4], 53%; with MCF7 [5], 54.8%.

Source of the values: ChEMBL document CHEMBL1131457, “cis-[PtCl2(4,7-H-5-methyl-7-oxo[1,2,4]triazolo[1,5-a]pyrimidine)2]: a sterically restrictive new cisplatin analogue. Reaction kinetics with model nucleobases, DNA interaction studies, antitumor activity, and structure-activity relationships” (J Med Chem, 1998).
